Literature values in patent EP2965746B1 (Santa Farma Ilaç Sanayi A.S., priority 2014, dated 2016).
Values after ≈ are worked out from the molar mass of the structure shown.

Assays:
[1] = in vivo
[2] = in vivo; remark: listed apart in the source
[3] = in water

SMILES	absolute bioavailability [1]	time to reach maximum plasma concentration (Tmax) [2] [h]	solubility [3] [µg/mL]
CC(C)Cc1ccc(C(C)C(=O)O)cc1 (racemic) [Ibuprofen, (±)-(R,S)-2-(4-isobutylphenyl)-propionic acid]	about 100%	1.4 ± 1.1	0.078 (≈ 0.378 µM)
CC(C)Cc1ccc(C(C)C(=O)O)cc1.O.O.[Na] (stereo not shown) [Ibuprofen sodium dihydrate, ibuprofen sodium dihydrate]	–	0.6 ± 0.3	–
